{
  "source": "paper PMC5501742",
  "about": "(Cancer discovery, 2017)",
  "origin": "cited, not measured here",
  "settings": "cited from earlier work",
  "data": [
    {"molecule": "Nc1cc(C(F)(F)F)c(-c2cc(N3CCOCC3)nc(N3CCOCC3)n2)cn1", "note": "[Buparlisib]", "values": [
      {"measurement": "frequent treatment-related AEs", "value": "rash, hyperglycemia, diarrhea, and mucositis"}
    ]}
  ]
}
